Source: patent US8889704B2 (Array BioPharma Inc., priority 2011, dated 2014)
Structures can show the parent of a compound that is named as a salt.

What was measured:
Assay type in all cases: biochemical
[1] = molecular target: T1, GST-tagged recombinant full-length human Pim-2 (Homo sapiens, UniProt Q9P1W9); assay: PIM-2 Assay (as Example A); details: averaged IC50; 4 μM ATP, 1.0 μM PIM2tide, 1.5 nM Pim-2
T1 construct: GST-tagged recombinant full-length human Pim-2; GST
Method in brief: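 IC50 was derived by 4-parameter logistic fitting of percent-of-control data over a 10-point, 3-fold series (highest 10 μM, 2% DMSO). Reactions held 1.5 nM GST-Pim-2 (full-length, human), 4 μM [γ-33P]ATP and 1.0 μM PIM2tide for 60 min at 22 °C, pH 7.4; 33P-peptide captured on P81 filters.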

recombinant rat PIM-3 = recombinant rat PIM-3 (Rattus norvegicus, UniProt O70444); assay: PIM-3 Assay (as Example A); details: averaged IC50; 30 μM ATP, 3.75 μM PIM2tide, 0.5 nM PIM-3
Method in brief: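 33P incorporation from 30 μM [γ-33P]ATP into 3.75 μM PIM2tide by 0.5 nM rat PIM-3, 60 min at 22 °C in pH 7.4 MOPS buffer, read by P81 filter capture and scintillation counting. Compounds tested in 3-fold dilutions up to 10 μM final, 2% DMSO; percent-of-control data fitted by 4-parameter logistic for IC50.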

PIM-1 = PIM-1 (Homo sapiens, UniProt P11309); assay: Enzyme PIM-1 Assay ([33P]ATP incorporation into PIM2tide, filter plate); details: averaged IC50; 35 μM ATP, 7.5 μM PIM2tide, 0.25 nM PIM-1, 60 min at 22° C.
Method in brief: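 Ten-point, 3-fold dilution series (10 μM top, 2% DMSO final) tested for inhibition of 33P transfer from 35 μM ATP to 7.5 μM PIM2tide by 0.25 nM PIM-1. Reaction 60 min, 22 °C, pH 7.4 MOPS/MgCl2 buffer; phosphocellulose capture, scintillation counting, IC50 where fitted POC equals 50.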

T1 sequence (Q9P1W9 whole entry): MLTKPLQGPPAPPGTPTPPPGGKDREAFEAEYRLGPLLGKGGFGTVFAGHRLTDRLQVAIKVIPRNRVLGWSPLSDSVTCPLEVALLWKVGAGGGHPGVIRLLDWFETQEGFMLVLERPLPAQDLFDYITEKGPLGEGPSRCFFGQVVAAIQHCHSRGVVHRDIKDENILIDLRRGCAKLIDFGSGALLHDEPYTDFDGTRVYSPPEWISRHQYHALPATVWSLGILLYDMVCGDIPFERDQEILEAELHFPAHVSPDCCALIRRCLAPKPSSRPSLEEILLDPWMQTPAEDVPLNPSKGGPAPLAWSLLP
Chain of PIM-1 (P11309 whole entry, species assumed): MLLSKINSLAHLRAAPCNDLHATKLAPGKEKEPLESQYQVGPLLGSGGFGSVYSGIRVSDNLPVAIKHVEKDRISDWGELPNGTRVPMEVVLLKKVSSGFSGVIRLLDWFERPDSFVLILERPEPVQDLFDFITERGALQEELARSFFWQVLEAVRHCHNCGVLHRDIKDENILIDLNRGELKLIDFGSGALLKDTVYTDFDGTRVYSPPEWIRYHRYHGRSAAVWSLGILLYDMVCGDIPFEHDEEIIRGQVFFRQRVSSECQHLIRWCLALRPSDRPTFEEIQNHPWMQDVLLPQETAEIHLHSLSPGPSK

SMILES | IC50 [1] [nM] | IC50 (recombinant rat PIM-3) [nM] | IC50 (PIM-1) [nM]
CC(C)Sc1ccc2ccc(-c3nnc4ccc([C@@H](N5CC[C@H](N)C5)C(F)(F)F)cn34)nc2c1 [Example 268, (S)-1-((R)-2,2,2-trifluoro-1-(3-(7-(isopropylthio)quinolin-2-yl)-[1,2,4]triazolo[4,3-a]pyridin-6-yl)ethyl)pyrrolidin-3-amine hydrochloride] | > 1000 | 3.4 | 0.89
N[C@H]1CCN([C@H](c2ccc3nnc(-c4ccc5ccc(F)c(C6CC6)c5n4)n3c2)C(F)(F)F)C1 [Example 60, (S)-1-((R)-1-(3-(8-cyclopropyl-7-fluoroquinolin-2-yl)-[1,2,4]triazolo[4,3-a]pyridin-6-yl)-2,2,2-trifluoroethyl)pyrrolidin-3-amine dihydrochloride] | 77 | 4 | 0.19
COCC(C)Oc1cccc2ccc(-c3nnc4ccc([C@@H](N5CC[C@H](N)C5)C(F)(F)F)cn34)nc12 (stereo partly drawn) [Example 118, (3S)-1-((1R)-2,2,2-trifluoro-1-(3-(8-(1-methoxypropan-2-yloxy)quinolin-2-yl)-[1,2,4]triazolo[4,3-a]pyridin-6-yl)ethyl)pyrrolidin-3-amine hydrochloride] | 72 | 0.8 | 0.11
COc1ccc2ccc(-c3nnc4ccc([C@@H](N5CC[C@H](N)C5)C(F)(F)F)cn34)nc2c1 [Example 139, (S)-1-((R)-2,2,2-trifluoro-1-(3-(7-methoxyquinolin-2-yl)-[1,2,4]triazolo[4,3-a]pyridin-6-yl)ethyl)pyrrolidin-3-amine dihydrochloride] | > 100 | 4.9 | 0.58
CC(C)(CCO)c1cccc2ccc(-c3nnc4ccc([C@@H](N5CC[C@H](N)C5)C(F)(F)F)cn34)nc12 [Example 224, 3-(2-(6-((R)-1-((S)-3-aminopyrrolidin-1-yl)-2,2,2-trifluoroethyl)-[1,2,4]triazolo[4,3-a]pyridin-3-yl)quinolin-8-yl)-3-methylbutan-1-ol dihydrochloride] | 94 | 0.7 | 0.36
CO[C@H](C)COc1ccc2cc(F)c(-c3nnc4ccc([C@@H](N5CC[C@H](N)C5)C(F)(F)F)cn34)nc2c1 [Example 328, (S)-1-((R)-2,2,2-trifluoro-1-(3-(3-fluoro-7-((R)-2-methoxypropoxy)quinolin-2-yl)-[1,2,4]triazolo[4,3-a]pyridin-6-yl)ethyl)pyrrolidin-3-amine] | 748 | 1.39 | 0.33
N[C@H]1CCN([C@H](c2ccc3nnc(-c4ccc5cccc(OCCO)c5n4)n3c2)C(F)(F)F)C1 [Example 219, 2-(2-(6-((R)-1-((S)-3-aminopyrrolidin-1-yl)-2,2,2-trifluoroethyl)-[1,2,4]triazolo[4,3-a]pyridin-3-yl)quinolin-8-yloxy)ethanol dihydrochloride] | 253 | 1.2 | 0.26
C[C@@H](O)COc1cccc2ccc(-c3nnc4ccc([C@@H](N5CC[C@H](N)C5)C(F)(F)F)cn34)nc12 [Example 283, (R)-1-(2-(6-((R)-1-((S)-3-aminopyrrolidin-1-yl)-2,2,2-trifluoroethyl)-[1,2,4]triazolo[4,3-a]pyridin-3-yl)quinolin-8-yloxy)propan-2-ol formate] | 194 | 0.7 | 0.18
COCCCOc1ccc2ccc(-c3nnc4ccc([C@@H](N5CC[C@H](N)C5)C(F)(F)F)cn34)nc2c1 [Example 275, (S)-1-((R)-2,2,2-trifluoro-1-(3-(7-(3-methoxypropoxy)quinolin-2-yl)-[1,2,4]triazolo[4,3-a]pyridin-6-yl)ethyl)pyrrolidin-3-amine dihydrochloride] | 376 | 0.7 | 0.2
COC[C@@H](C)Oc1cc(F)cc2ccc(-c3nnc4ccc([C@H](N5CC[C@](C)(N)C5)C(F)(F)F)cn34)nc12 [Example 221, (S)-3-methyl-1-((S)-2,2,2-trifluoro-1-(3-(6-fluoro-8-((R)-1-methoxypropan-2-yloxy)quinolin-2-yl)-[1,2,4]triazolo[4,3-a]pyridin-6-yl)ethyl)pyrrolidin-3-amine dihydrochloride] | 128 | 1 | 0.41
CCc1cccc2ccc(-c3nnc4ccc([C@@H](N5C[C@@H](O)[C@H](O)C5)C(F)(F)F)cn34)nc12 [Example 73, (3R,4R)-1-((R)-1-(3-(8-ethylquinolin-2-yl)-[1,2,4]triazolo[4,3-a]pyridin-6-yl)-2,2,2-trifluoroethyl)pyrrolidine-3,4-diol] | > 100 | 32 | 0.17
COc1cccc2ccc(-c3nnc4ccc(C(N5CC[C@H](N)C5)C(F)(F)F)cn34)nc12 (stereo partly drawn) [Example 1, (3S)-1-(2,2,2-trifluoro-1-(3-(8-methoxyquinolin-2-yl)-[1,2,4]triazolo[4,3-a]pyridin-6-yl)ethyl)pyrrolidin-3-amine dihydrochloride] | 161 | 1.7 | 0.43
CN(C)C(=O)c1ccc2ccc(-c3nnc4ccc([C@@H](N5CC[C@H](N)C5)C(F)(F)F)cn34)nc2c1 [Example 35, 2-(6-((R)-1-((S)-3-aminopyrrolidin-1-yl)-2,2,2-trifluoroethyl)-[1,2,4]triazolo[4,3-a]pyridin-3-yl)-N,N-dimethylquinoline-7-carboxamide dihydrochloride] | > 1000 | 39 | 4.52
CC(C)(O)COc1cc(F)cc2ccc(-c3nnc4ccc([C@@H](N5CC[C@H](N)C5)C(F)(F)F)cn34)nc12 [Example 259, 1-(2-(6-((R)-1-((S)-3-aminopyrrolidin-1-yl)-2,2,2-trifluoroethyl)-[1,2,4]triazolo[4,3-a]pyridin-3-yl)-6-fluoroquinolin-8-yloxy)-2-methylpropan-2-ol formate] | 54 | 0.3 | 0.12
COCC1(c2cccc3ccc(-c4nnc5ccc([C@@H](N6CC[C@H](N)C6)C(F)(F)F)cn45)nc23)CC1 [Example 112, (S)-1-((R)-2,2,2-trifluoro-1-(3-(8-(1-(methoxymethyl)cyclopropyl)quinolin-2-yl)-[1,2,4]triazolo[4,3-a]pyridin-6-yl)ethyl)pyrrolidin-3-amine dihydrochloride] | 21 | 1.4 | 0.12
Cc1cc(-c2cc3nc(-c4nnc5ccc([C@@H](N6CC[C@H](N)C6)C(F)(F)F)cn45)ccc3cc2F)n(C)n1 [Example 204, (3 S)-1-((1R)-1-(3-(7-(1,3-dimethyl-1H-pyrazol-5-yl)-6-fluoroquinolin-2-yl)-[1,2,4]triazolo[4,3-a]pyridin-6-yl)-2,2,2-trifluoroethyl)pyrrolidin-3-amine dihydrochloride] | > 1000 | 3 | 0.48
N[C@H]1CCN([C@H](c2ccc3nnc(-c4ccc5cc(F)c(OCC(F)(F)F)cc5n4)n3c2)C(F)(F)F)C1 [Example 226, (S)-1-((R)-2,2,2-trifluoro-1-(3-(6-fluoro-7-(2,2,2-trifluoroethoxy)quinolin-2-yl)-[1,2,4]triazolo[4,3-a]pyridin-6-yl)ethyl)pyrrolidin-3-amine dihydrochloride] | 235 | 0.5 | 0.27
N[C@@H]1CCN([C@@H](c2ccc3nnc(-c4ccc5cccc(C6CC6)c5n4)n3c2)C(F)(F)F)C1 [Example 56, (R)-1-((S)-1-(3-(8-cyclopropylquinolin-2-yl)-[1,2,4]triazolo[4,3-a]pyridin-6-yl)-2,2,2-trifluoroethyl)pyrrolidin-3-amine] | 16 | 2.4 | 0.14
CN[C@H]1CCN([C@H](c2ccc3nnc(-c4ccc5cccc(OCC6CC6)c5n4)n3c2)C(F)(F)F)C1 [Example 43, (S)-1-((R)-1-(3-(8-(cyclopropylmethoxy)quinolin-2-yl)-[1,2,4]triazolo[4,3-a]pyridin-6-yl)-2,2,2-trifluoroethyl)-N-methylpyrrolidin-3-amine dihydrochloride] | 65 | 1.5 | 0.13
COc1cccc2ccc(-c3nnc4ccc([C@@H](N5CCC(C)(O)C5)C(F)(F)F)cn34)nc12 (single isomer, unassigned; diastereomer 2) [Example 194, hydrochloride] | > 1000 | > 100 | > 100
CCOc1cc2nc(-c3nnc4ccc([C@H](N5CC[C@@](C)(N)C5)C(F)(F)F)cn34)ccc2cc1F [Example 294, (R)-1-((S)-1-(3-(7-ethoxy-6-fluoroquinolin-2-yl)-[1,2,4]triazolo[4,3-a]pyridin-6-yl)-2,2,2-trifluoroethyl)-3-methylpyrrolidin-3-amine hydrochloride] | 94 | 0.7 | 0.53
